From patent US8268869B2, “Vinyl indazolyl compounds” (Eli Lilly and Company, priority 2009, dated 2012)

Experiments:
[1] = tested on: human gastric cancer cells SNU-16; experiment: Xenograft tumor model SNU-16 (gastric); format: in vivo, nude mice; conditions: oral gavage
Text: (§1) One of Human bladder cancer cells RT112 (European Collection of Cell Cultures), human multiple myeloma cells OPM-2 (German Collection of Microorganisms and Cell Cultures), human non-small cell lung cancer (NSCL) cells NCI-H460 (American Type Culture Collection), human pancreatic cancer cells BxPC-3 (American Type Culture Collection) or human gastric cancer cells SNU-16 (American Type Culture Collection) are expanded in culture, according to KOREAN CELL LINE BANK (KCLB) recommendations, harvested and injected subcutaneously onto the rear flank of nude mice. When tumors are established (7-21 days after implant), animals are randomized and grouped into control and test groups. Test compound is prepared in an appropriate vehicle (i.e. formulated in 10% Acacia), and the test compound and a vehicle control are administered by oral gavage. Tumor response is determined by tumor volume measurement performed twice a week during the course of treatment and reported as percent inhibition of tumor volume versus the vehicle control group.

Kdr = molecular target: T1, Kdr (Mus musculus, UniProt P35918); experiment: In vivo Kdr target inhibition assay (VEGF induced phospho-Kdr in mouse heart); conditions: female nude mice, oral gavage, VEGF i.v., heart tissue
T1 construct: Heart tissues are collected and homogenized as described above; from tissue; host or cells: heart of female nude mice (CD1/nu/nu)
T1 sequence (P35918 20-1345): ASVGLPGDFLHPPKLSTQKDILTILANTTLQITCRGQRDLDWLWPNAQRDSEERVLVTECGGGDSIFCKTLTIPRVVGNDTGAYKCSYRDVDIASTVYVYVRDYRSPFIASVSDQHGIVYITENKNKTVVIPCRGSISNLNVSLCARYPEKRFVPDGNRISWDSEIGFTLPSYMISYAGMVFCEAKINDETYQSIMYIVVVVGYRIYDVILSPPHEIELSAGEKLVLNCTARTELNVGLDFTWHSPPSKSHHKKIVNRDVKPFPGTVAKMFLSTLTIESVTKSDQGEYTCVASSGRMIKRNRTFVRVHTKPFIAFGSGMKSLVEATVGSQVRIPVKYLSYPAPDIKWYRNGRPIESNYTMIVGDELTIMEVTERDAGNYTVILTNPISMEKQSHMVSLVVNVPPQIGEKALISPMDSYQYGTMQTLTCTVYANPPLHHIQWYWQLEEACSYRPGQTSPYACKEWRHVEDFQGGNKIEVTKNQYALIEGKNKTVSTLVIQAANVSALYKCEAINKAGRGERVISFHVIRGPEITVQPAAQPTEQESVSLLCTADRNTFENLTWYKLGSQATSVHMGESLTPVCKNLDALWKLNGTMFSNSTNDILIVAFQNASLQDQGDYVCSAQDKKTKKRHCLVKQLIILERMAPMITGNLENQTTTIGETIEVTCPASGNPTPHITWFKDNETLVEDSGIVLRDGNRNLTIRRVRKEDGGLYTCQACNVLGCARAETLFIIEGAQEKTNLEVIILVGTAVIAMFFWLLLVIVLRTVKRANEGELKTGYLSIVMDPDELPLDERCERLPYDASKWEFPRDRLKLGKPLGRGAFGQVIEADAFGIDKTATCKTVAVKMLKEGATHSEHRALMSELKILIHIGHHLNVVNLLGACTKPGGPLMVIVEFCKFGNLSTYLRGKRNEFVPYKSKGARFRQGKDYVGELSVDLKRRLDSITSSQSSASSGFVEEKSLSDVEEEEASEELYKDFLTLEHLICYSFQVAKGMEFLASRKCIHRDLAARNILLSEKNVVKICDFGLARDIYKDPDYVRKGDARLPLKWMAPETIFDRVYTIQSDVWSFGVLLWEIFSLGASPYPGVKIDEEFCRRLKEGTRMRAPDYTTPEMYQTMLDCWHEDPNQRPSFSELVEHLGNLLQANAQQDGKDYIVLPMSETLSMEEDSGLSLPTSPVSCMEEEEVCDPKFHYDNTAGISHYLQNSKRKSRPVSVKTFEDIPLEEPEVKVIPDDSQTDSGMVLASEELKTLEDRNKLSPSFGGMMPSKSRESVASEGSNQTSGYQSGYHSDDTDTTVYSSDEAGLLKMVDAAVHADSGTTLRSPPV
Protocol: To assess the activity of this compound against Kdr, female nude mice (CD1/nu/nu) are acclimated and treated as described above except VEGF is used to induce Kdr autophosphorylation {VEGF (6 ug/animal, R & D Systems 493-MV/CF). Heart tissues are collected and homogenized as described above. The resulting homogenates are analyzed using MSD® phospho-Kdr ELISA (Meso Scale Discovery, catalog number N41ZA-1) to determine tissue phospho-Kdr level. […] The positive control group is treated with VEGF […]) in saline administered intravenously (as minimum p-KDR inhibition of 0%).

[2] = tested on: FGF receptor 1 (b-FGF induced pERK in HUVEC); experiment: AlphaScreen SureFire Detection of ERK phosphorylation (Thr202/Tyr204) in HUVEC; format: cell-based; conditions: Homo sapiens, b-FGF 50 ng/mL, 20 mg/mL BSA
Protocol: The effect of compounds on the inhibition of FGF receptor 1 is measured by monitoring the phosphorylation of ERK (pERK) in response to basic-Fibroblast growth factor (b-FGF) stimulation in Human Umbilical Endothelial cells (HUVEC). The levels of pERK formed are measured using the ALPHASCREEN® […]® system (TGR Biosciences, TGRES50K). This is a homogeneous assay format utilizing the immuno-sandwich capture of the phosphorylated analyte followed by detection using antibody-coated ALPHASCREEN® beads (Perkin Elmer) to generate an amplified signal.
HUVEC cells are recovered and maintained in growth medium consisting of endothelial cell basal medium (Clonetics, CC-3132) supplemented with 10% FBS 0.4% bovine brain extract 0.1% hydrocortisone, 0.1% gentamicin sulfate amphotericin-B (GA-1000), and 0.1% epidermal growth factor, human recombination until passage 7. For the assay, cells are harvested by standard procedures and then counted. Cells (20,000/well) are plated in 100 μL of growth medium into 96 well Poly-D-Lysine coated plates (BD, 354640). Plates are incubated overnight at 37° C., 5% CO2.
On the day of the assay, cells are serum starved in 100 μL EBM (endothelial cell basal) medium containing 1.5% FBS and 20 mg/mL BSA for 3 hours at 37° C., 5% CO2, then treated with 20 μL of 3× serially diluted compounds in starvation medium for 1 hour at 37° C. […]

[3] = tested on: human multiple myeloma cells OPM-2; experiment: Xenograft tumor model OPM-2 (multiple myeloma); format: in vivo, nude mice; conditions: oral gavage
Text: as §1

[4] = tested on: Human bladder cancer cells RT112; experiment: Xenograft tumor model RT-112 (bladder); format: in vivo, nude mice; conditions: oral gavage
Text: as §1

[5] = tested on: human pancreatic cancer cells BxPC-3; experiment: Xenograft tumor model BxPC-3 (pancreatic); format: in vivo, nude mice; conditions: oral gavage
Text: as §1

[6] = tested on: human non-small cell lung cancer (NSCL) cells NCI-H460; experiment: Xenograft tumor model NCI-H460 (NSCLC); format: in vivo, nude mice; conditions: oral gavage
Text: as §1

[7] = tested on: FGF9 induced ERK phosphorylation in Human RT112 bladder carcinoma cells; experiment: FGF9 induced p-ERK with BSA in RT112 cells; format: cell-based; conditions: RT-112, relative IC50, RT112 cells, 20 mg/mL BSA, 500 ng/mL FGF9
Protocol: Human RT112 bladder carcinoma cells are seeded at a density of 5,000 cells per well in 100 μL RPMI 1640 (Gibco 11875-085) supplemented with 10% fetal bovine serum (FBS, Gibco 10082-147) and 1% of a penicillin/streptomycin solution (Gibco 15140-122) in CELLBIND® 96 well plates (Corning 3340) and incubated overnight at 37° C. The next morning the growth medium is removed and replaced with 100 μL RPMI 1640 supplemented with 20 mg/mL bovine serum albumin (BSA). After 3 hours of incubation at 37° C., 20 μL of 3× serially diluted compounds in RPMI 1640 with 20 mg/mL BSA in 6% DMSO are added to each well. This yielded a 10 point dose-response curve ranging from 10-0.005 μM in 1% DMSO. The incubation is continued for 1 hour at 37° C. The cells are stimulated with 50 μL of a […] FGF9 (R&D Systems 273-F9) solution in serum free RPMI to give a final concentration of 500 ng/mL FGF9. Cells are fixed by the addition of 30 μL of a 25% formaldehyde solution in phosphate buffered saline (PBS) (3.7% formaldehyde final concentration), and incubated 30 minutes at RT. Cells are washed 3× with PBS, followed by the addition of 100 μL of cold methanol and incubated for 30 minutes at −20° C. The methanol is removed and the cells are treated with PBS containing 0.1% TRITON® X-100 (PBST), washed 3× with PBS, and incubated 15 minutes at RT. […]

SMILES: C[C@@H](Oc1ccc2[nH]nc(/C=C/c3cnn(CCO)c3)c2c1)c1c(Cl)cncc1Cl [Example 1, (R)-(E)-2-(4-(2-(5-(1-(3,5-Dichloropyridin-4-yl)ethoxy)-1H-indazol-3-yl)vinyl)-1H-pyrazol-1-yl)ethanol]
- percent inhibition of tumor volume versus vehicle control ([1]; SNU-16, 3 mg/kg BID for 17 days): 83%
- percent inhibition of tumor volume versus vehicle control ([1]; SNU-16, 3 mg/kg QD for 17 days): 62%
- TEC90 (concentration necessary to achieve 90% inhibition of phospho-Kdr) (Kdr): 252 nM
- TED50 (dose necessary to achieve 50% inhibition of phospho-Kdr) (Kdr): 1.34 mg/kg
- IC50 [2]: 0.6 nM
- percent inhibition of tumor volume versus vehicle control ([3]; OPM-2, 3 mg/kg BID for 21 days): 84%
- percent inhibition of tumor volume versus vehicle control ([3]; OPM-2, 3 mg/kg QD for 21 days): 68%
- percent inhibition of tumor volume versus vehicle control ([4]; RT-112, 3 mg/kg BID for 21 days): 85.9%
- percent inhibition of tumor volume versus vehicle control ([4]; RT-112, 3 mg/kg QD for 21 days): 41.3%
- percent inhibition of tumor volume versus vehicle control ([5]; BxPC-3, 3 mg/kg BID for 21 days): 55%
- percent inhibition of tumor volume versus vehicle control ([5]; BxPC-3, 3 mg/kg QD for 21 days): 1%
- percent inhibition of tumor volume versus vehicle control ([6]; NCI-H460, 3 mg/kg BID for 17 days): 69%
- percent inhibition of tumor volume versus vehicle control ([6]; NCI-H460, 3 mg/kg QD for 17 days): 46%
- IC50 [7]: 0.4 nM
